Measurements published in patent US20190233884A1 (University of Southern California, priority 2016, published 2019).

Test system: patients with refractory metastatic colorectal cancer (mCRC)
Assay: PFS, OS and disease control in the testing (validation) cohort of refractory mCRC patients receiving TAS-102 (n=129, Italy), by baseline characteristics, SNP genotype and toxicity
Format: in vivo, human
Details: testing cohort
Procedure: All patients underwent the treatment in salvage-line setting. […]
(§1) Genomic DNA was extracted from peripheral whole blood in patients of all cohorts using the QIAmp Kit (Qiagen, Valencia, Calif., USA) according to the manufacturer's protocol (www.qiagen.com). The candidate SNPs were genotyped using PCR-based direct DNA sequence analysis by ABI 3100A Capillary Genetic Analyzer and Sequencing Scanner v1.0 (Applied Biosystems). Amplification of extracted DNA was carried out using both forward and reverse primers for each gene polymorphism as shown in Table 1. […] The investigators analyzing SNPs were blinded to the clinical data of the study patients.
The primary endpoint in this study was progression-free survival (PFS), and the secondary endpoints were overall survival (OS) and disease control rate (DCR). PFS was calculated from the date of starting treatment to the first observation of disease progression or death from any cause. If a patient had no disease progression or death, PFS was censored at the date of last follow up. OS was calculated from the date of starting treatment until the date of death from any cause or the date of the last follow-up, at which point OS was censored. The disease control rate (DCR) was defined as the proportion of patients who achieved a stable disease (SD) or […] according to RECISTv1.1. Chi-square test was used to examine the difference in baseline patient characteristics among the three cohorts. Allelic distribution of all SNPs by ethnicity for deviation from Hardy-Weinberg equilibrium and the allelic frequencies of SNPs were tested using the Chi-square tests with one degree of freedom. The associations between candidate SNPs and disease control, and toxicities were examined using contingency tables and Fisher's exact test. The associations of SNPs with PFS and OS were analysed using Kaplan-Meier curves and the log-rank test. Because the true mode of inheritance of candidate SNPs was not established yet, a codominant or dominant genetic model if appropriate was considered.
All patients underwent the treatment in salvage-line setting. […] In all patients, adverse events were graded according to the Common Terminology Criteria for Adverse Events, version 4.0. […]
as §1, with “tested” for “genotyped”, “Biosystems).” for “Biosystems). Amplification of extracted DNA was carried out using both forward and reverse primers for each gene polymorphism as shown in Table 1.”, “data.” for “data of the study patients.”
The primary endpoint in this study was progression-free survival (PFS), and the secondary endpoints were overall survival (OS) and disease control rate (DCR).

[1] = hENT1 + OCT2/MATE1 classification: Fair
[2] = hENT1 + OCT2/MATE1 classification: Good or Excellent
[3] = hENT1 + OCT2/MATE1 classification: Poor

**Q.** What does the source list for Trifluridine/tipiracil [TAS-102]?
**A.** Progression-free Survival Median, months (95% CI) (MATE1_OCT019 Poor): 2.0 (1.8, 2.1) months; Disease Control Rate PD (MATE1 rs2289659 A/A): 20 (74%); Disease Control Rate SD (MATE1 rs2289659 A/A): 7 (26%); Progression-free Survival Median, months (95% CI) (MATE1 rs2289659 A/A): 2.0 (1.7, 2.3) months; Overall Survival HR (95% CI) multivariate (MATE1 rs2289659 A/A vs G/G): 1.42 (0.61, 3.32); Overall Survival HR (95% CI) univariate (MATE1 rs2289659 A/A vs G/G): 1.13 (0.50, 2.58); Progression-free Survival HR (95% CI) multivariate (MATE1 rs2289659 A/A vs G/G): 1.11 (0.63, 1.96); Progression-free Survival HR (95% CI) univariate (MATE1 rs2289659 A/A vs G/G): 1.01 (0.58, 1.74); Disease Control Rate PD (MATE1 rs2289659 Any A): 64 (70%); Disease Control Rate SD (MATE1 rs2289659 Any A): 27 (30%); Overall Survival Median, months (95% CI) (MATE1 rs2289659 Any A): 5.3 (3.9, 8.8+) months; Progression-free Survival Median, months (95% CI) (MATE1 rs2289659 Any A): 2.0 (1.9, 2.1) months; Overall Survival HR (95% CI) multivariate (MATE1 rs2289659 Any A vs G/G): 1.60 (0.85, 3.04); Overall Survival HR (95% CI) univariate (MATE1 rs2289659 Any A vs G/G): 1.42 (0.76, 2.64); Progression-free Survival HR (95% CI) multivariate (MATE1 rs2289659 Any A vs G/G): 1.14 (0.74, 1.75); Progression-free Survival HR (95% CI) univariate (MATE1 rs2289659 Any A vs G/G): 1.03 (0.68, 1.58); Disease Control Rate PD (MATE1 rs2289659 G/A): 44 (69%); Disease Control Rate SD (MATE1 rs2289659 G/A): 20 (31%); Overall Survival Median, months (95% CI) (MATE1 rs2289659 G/A): 4.6 (3.7, 8.8+) months; Progression-free Survival Median, months (95% CI) (MATE1 rs2289659 G/A): 2.0 (1.8, 2.3) months; Overall Survival HR (95% CI) multivariate (MATE1 rs2289659 G/A vs G/G): 1.67 (0.56, 3.25); Overall Survival HR (95% CI) univariate (MATE1 rs2289659 G/A vs G/G): 1.55 (0.81, 2.96); Progression-free Survival HR (95% CI) multivariate (MATE1 rs2289659 G/A vs G/G): 1.15 (0.73, 1.53); Progression-free Survival HR (95% CI) univariate (MATE1 rs2289659 G/A vs G/G): 1.04 (0.66, 1.64); Disease Control Rate PD (MATE1 rs2289659 G/G): 27 (73%); Disease Control Rate SD (MATE1 rs2289659 G/G): 10 (27%); Overall Survival Median, months (95% CI) (MATE1 rs2289659 G/G): 9.0 (4.4, 9.0+) months; Progression-free Survival Median, months (95% CI) (MATE1 rs2289659 G/G): 1.9 (1.9, 2.4) months; Disease Control Rate PD (OCT2 rs316019 C/A): 21 (68%); Disease Control Rate SD (OCT2 rs316019 C/A): 10 (32%); Overall Survival Median, months (95% CI) (OCT2 rs316019 C/A): 4.6 (3.6, 7.1+) months; Progression-free Survival Median, months (95% CI) (OCT2 rs316019 C/A): 1.9 (1.7, 2.4) months; Overall Survival HR (95% CI) multivariate (OCT2 rs316019 C/A vs C/C): 1.00 (0.53, 1.89); Overall Survival HR (95% CI) univariate (OCT2 rs316019 C/A vs C/C): 1.19 (0.64, 2.19); Progression-free Survival HR (95% CI) multivariate (OCT2 rs316019 C/A vs C/C): 1.28 (0.79, 2.07); Progression-free Survival HR (95% CI) univariate (OCT2 rs316019 C/A vs C/C): 1.12 (0.72, 1.76); Disease Control Rate PD (OCT2 rs316019 C/C): 70 (72%); Disease Control Rate SD (OCT2 rs316019 C/C): 27 (28%); Overall Survival Median, months (95% CI) (OCT2 rs316019 C/C): 5.5 (4.7, 9.0+) months; Progression-free Survival Median, months (95% CI) (OCT2 rs316019 C/C): 2.0 (1.9, 2.3) months; Overall Survival HR (95% CI) multivariate (adjusted for age group, liver metastasis, ECOG performance status, previous anti-EGFR, OCT2 rs316000 A/G vs A/A): 0.66 (0.36, 1.23); Overall Survival HR (95% CI) multivariate (adjusted for age group, liver metastasis, ECOG performance status, previous anti-EGFR, OCT2 rs316000 Any G vs A/A): 0.66 (0.36, 1.21); Overall Survival HR (95% CI) multivariate (adjusted for age group, liver metastasis, ECOG performance status, previous anti-EGFR, OCT2 rs316000 G/G vs A/A): 0.64 (0.08, 4.91); Overall Survival HR (95% CI) univariate (genotype vs A/A, OCT2 rs316000 A/G vs A/A): 0.87 (0.48, 1.57); Overall Survival HR (95% CI) univariate (genotype vs A/A, OCT2 rs316000 Any G vs A/A): 0.83 (0.46, 1.47); Overall Survival HR (95% CI) univariate (genotype vs A/A, OCT2 rs316000 G/G vs A/A): 0.45 (0.06, 3.28); OS [1]: 4.0 months; PFS [1]: 1.9 months; OS [2]: 9.0 months; PFS [2]: 2.1 months; OS [3]: 3.6 months; PFS [3]: 2.0 months; Disease Control Rate PD (hENT1 rs750370 A/A): 36 (80%)
